Experimental data from US6936283B2, “Composition for stimulation of specific metallo-enzymes” (priority 2003, dated 2005).

Assays:
[1] = target: liver alcohol dehydrogenase (LADH); settings: inhibit the activity of LADH enzyme, ref [1]; given in words only; cited from earlier work
healthy individuals = assay: Alcohol metabolism in test persons after vodka, alcohol level measured with CA 2000 Digital Alcohol Detector every 30 minutes; format: in vivo, human; settings: from comparing the fructose-containing and fructose-free compositions
Description: The study presented in Table 2 and 3 included 10 individuals (6 males and 4 females, 24-57 years old).
In the first study (Table 2A) the test persons were given 8 oz. (ca.2.4 dl) of vodka mixed with 6 dl Sprite (The Coca Cola Company). The alcohol was consumed within one hour. 45 minutes after alcohol consumption each person drank 500 ml water. The alcohol level was then measured as described under.
One week later, the same test persons were given the same amount of vodka and Sprite. 45 minutes after alcohol consumption each test person drank 500 ml of the composition of the present invention. The alcohol level was then measured as described under.
Both part of the second study (Table 2 B) was performed in the same way as described for the study presented […], with the exception that the test persons were given a 500 ml solution containing 90 g fructose, 90 mg caffeine and 500 mg vitamin C instead of the composition of the present invention. The alcohol level was again measured as described below.
The alcohol level (measured in 0/00) was measured with a CA 2000 Digital Alcohol Detector once every 30 minutes in each experiment. Each value is an average of four parallel measurements.

For CSCC[C@H](N)C(=O)O [methionine], the Ki [1] is listed as “in the uM-mM area”.
For N[C@@H](CCC(=O)N[C@@H](CS)C(=O)NCC(=O)O)C(=O)O [glutathione], the Ki [1] is given as “in the uM-mM area”.
For N[C@@H](CS)C(=O)O [cysteine], the Ki [1] is listed as “in the uM-mM area”.
For O=C(CO)[C@@H](O)[C@H](O)[C@H](O)CO [fructose], the “contribution to the acceleration of alcohol degradation” value (healthy individuals) was 20-25%.
For CC(=O)N[C@@H](CS)C(=O)O [acetylcysteine], the Ki [1] is listed as “in the uM-mM area”.
